Here are results for 3 molecules from PMC5600443 (Biochemistry and Biophysics Reports, 2016).

Where “and” joins values, the source holds several entries; their conditions need not be identical. Identical values can stand only once.

Type in all cases: cell-based
The target in assay [1] is rat α1/β1 (Rα1/β1) Na^+,K^+pump (Rattus norvegicus, UniProt P06685). The note with it: for Efficiency coefficient A = 100*IC50 Na,K pump/IC50 proliferation, Rα1/β1 pump: Rα1/β1 pump IC50 versus RH-35 cell proliferation IC50.
In assay [2] the test system is RH-35 rat liver cancer cell line. The assay can be described thus: MTT assay, inhibition of proliferation of RH-35 rat liver cancer cells. The note with it: read-out: Cell proliferation RH-35 IC50, rat RH-35 cells, 72 h, average of 3 independent experiments + SEM.
The target in assay [3] is rat α2/β1 (Rα2/β1) Na^+,K^+pump (Rattus norvegicus, UniProt P06686). The note with it: Rα2/β1 pump IC50 versus RH-35 cell proliferation IC50.

As for `CC12CCC(OC(=O)NCCCn3ccnc3)CC1CCC1C2CCC2(C)C(c3ccc(=O)oc3)CCC12O` (centres unmarked) [BF238, Bufalin-3-yl [3-(1h-imidazol-1-yl)propyl]carbamate], the “Effect on Rα1/β1 pump current” value in assay [1] (0.05 µM drug) was “hardly affected”. For the same molecule, in assay [1] (0.50 µM drug), the “Inhibition of Rα1/β1 pump current” value is “more than 50%”. For the same molecule, the “Efficiency coefficient A = 100*IC50 Na,K pump/IC50 proliferation, Rα1/β1 pump” value in assay [1] is reported as 0.88. In assay [2], the IC50 worked out at 37.4 ± 3.1 µM. Also, the “Efficiency coefficient A = 100*IC50 Na,K pump/IC50 proliferation, Rα2/β1 pump” value in assay [3] came to 2.64.
On to `CNCCCNC(=O)O[C@H]1CC[C@@]2(C)[C@H](CC[C@@H]3[C@@H]2CC[C@]2(C)[C@@H](c4ccc(=O)oc4)CC[C@]32O)C1` [BF601, Bufalin-3-yl [3-(methylamino)propyl]carbamate], for which, in assay [1], the “Efficiency coefficient A = 100*IC50 Na,K pump/IC50 proliferation, Rα1/β1 pump” value is given as 0.35. In addition, in assay [2], the IC50 was ~30.8 µM and 30.8 µM. The “Efficiency coefficient A = 100*IC50 Na,K pump/IC50 proliferation, Rα2/β1 pump” value in assay [3] stood at 0.92.
In the case of Bufalin-3-MeON-arabinopyranoside [BAP], the “Efficiency coefficient A = 100*IC50 Na,K pump/IC50 proliferation, Rα1/β1 pump” value in assay [1] was determined as 0.10. In addition, the IC50 in assay [2] is ~67.2 µM and 67.2 µM. Further, in assay [3], the “Efficiency coefficient A = 100*IC50 Na,K pump/IC50 proliferation, Rα2/β1 pump” value was 0.16.
